In series [1] the test system is Male albino rats. Description: Anorectic test (effect on food intake of fasted rats). To be noted: sc; rat; dose which reduced the food intake by 50% over the reference value; 2 hour test period. Format: in vivo. As for the experimental part:
Male albino rats with starting weights from 200 to 250 gm, kept in so-called makrolon-cages, three to a cage, in an air-conditioned room at a temperature of 22 ± 1° C and about 50 % relative humidity. Between test runs, food (standard feed Altromin R) and drinking water were freely accessible.
A combination metabolism and motility test cage, described by J. M. van ROSSUM and F. SIMONS (Psychopharmacologia 14, 248, 1969) was used. With the aid of this device it is possible to measure the food intake and motoric activity on the same test animal.
For effecting and evaluating this test, a modified version of the method of J. SPENGLER and P. WASER [Arch. exp. Path. Pharmcol. 237, 171 (1959)] was used. A test group consisting of 6 ats was used for the test over a 3months' period, once a week, always on the same day of the week and at the same time of day. In preparation for the test, the animals were fasted for 24 hours while they had free access to drinking water. Then, they were put singly into the above-mentioned test cage for 2 hours, where a preweighed quantity of feed (Altromin-R, pulverized) and drinking water was offered ad libitum. Scattered feed was collected carefully, the consumed quantity of feed was determined by weighing the remaining quantity, and the food intake was calculated in terms of grams per 100 gm body weight. the test compound was injected subcutaneously or administered orally by esophageal sound at the beginning of the test period. […] Therefore, each group served as its own control. In the control tests the rats were given at the beginning of the 2 hour test period, 0.1 ml/100 gm water orally or 0.1 ml/100 gm physiological NaCl-solution subcutaneously. Before the test runs, 3 to 4 control tests were made and repeated later at intervals of 5 weeks. The average amount of the food intake which the animals had shown in the control tests was taken as the reference value. The anorectic activity of the test compound was expressed in terms of the percentage reduction of this reference value, and the median anorectic dose (ED50), i.e. the dose which reduced the food intake by 50% over the reference value was graphically calculated.

The nature of series [2]: Acute toxicity (LD50 in mice). The settings on record: in vivo, sc; for selectivity ratio: LD50 mouse s.c. / anorectic ED50 rat s.c., read-out: Therapeutic ratio LD50/ED50; for LD50 at 24 h: mouse, 24 hours observation. As for the experimental part: Groups of 10 male mice of the NMRI-strain with body weights between 18 and 30 gm. The animals were put individually into cylindrical jars and received by subcutaneous injection under the dorsal skin gradually increasing doses from 0.1 to 0.2 ml/10 gm of body weight of the test compound. The limits for the test dosage range had previously been determined on individual mice. The symptoms of poisoning were recorded. After an observation period of 24 hours the dead animals were counted. The determination of the median lethal dose (LD50) according to G. KARBER [Arch. exper. Path. Pharmak. 162, 480, (1931)] concluded the test.

Molecules are shown by their SMILES. Structures can show the parent of a compound that is named as a salt.

What is called ED50 is the dose at which the effect has come halfway, by size or by number of responders. For the molecule `Cc1c2c(nc3ccccc13)CCN(C(=O)OC(C)(C)C)CC2.Cl` [J, 1,2,4,5-tetrahydro-11-methyl-3azepino[4,5-b]quinoline-carboxylic acid tert.butyl ester hydrochloride], the ED50 in series [1] turned out to be 1.1 mg/kg.

Regarding `COC(=O)N1CCc2nc3ccccc3c(C)c2CC1` [N, 1,2,4,5-tetrahydro-11-methyl-3-azepino[4,5-b]quinoline-carboxylic acid methyl ester], in series [1], the ED50 was determined as 1.8 mg/kg.

Turning to `Cc1c2c(nc3ccccc13)CCN(CC(C)O)CC2.Cl.Cl` (stereo not drawn) [M, 3-(2-hydroxy-propyl)-1,2,4,5-tetrahydro-11-methyl-3H-azepino[4,5-b]quinoline dihydrochloride], the ED50 in series [1] turned out to be 2 mg/kg.

Usually LD50 stands for the dose at which mortality reaches 50%. The low end stands for greater toxicity, the high end for lower toxicity. On to `CCCc1c2c(nc3ccccc13)CCNCC2.Cl.Cl` [Compound E, 1,2,4,5-tetrahydro-11-propyl-3H-azepino[4,5-b]quinoline dihydrochloride], for which, in series [1], the ED50 stood at 0.9 mg/kg. Moreover, in series [2], the selectivity ratio was 164 and the 50% lethal dose (LD50) at 24 h worked out at 148 mg/kg.

In the case of `Cc1c2c(nc3ccccc13)CCNCC2.Cl.Cl` [C, 1,2,4,5-tetrahydro-11-methyl-3H-azepino[4,5-b]quinoline dihydrochloride], in series [1], the ED50 stood at 0.2 mg/kg. Moreover, in series [2], the selectivity ratio came to 415 and the LD50 at 24 h stood at 83 mg/kg.

With `CCN1CCc2nc3ccccc3c(C)c2CC1.Cl.Cl` [A, 3-ethyl-1,2,4,5-tetrahydro-11-methyl-3H-azepino[4,5-b]quinoline dihydrochloride], in series [1], the ED50 worked out at 1.9 mg/kg. Also, in series [2], the selectivity ratio is 95 and the LD50 at 24 h amounted to 180 mg/kg.

Regarding `CCOC(=O)N1CCc2nc3ccccc3c(C)c2CC1` [D, 1,2,4,5-tetrahydro-11-methyl-3-azepino[4,5-b]quinoline-carboxylic acid ethyl ester], the ED50 in series [1] worked out at 0.8 mg/kg. In series [2], the selectivity ratio amounted to 1010 and the LD50 at 24 h is 810 mg/kg.

As to `Cc1c2c(nc3ccc(Cl)cc13)CCNCC2.Cl.Cl` [F, 9-chloro-1,2,4,5-tetrahydro-11-methyl-3H-azepino[4,5-b]quinoline dihydrochloride], the ED50 in series [1] was determined as 1.5 mg/kg. Besides, in series [2], the selectivity ratio was 143 and the LD50 at 24 h stood at 215 mg/kg.

For the molecule `CCOC(=O)N1CCc2c(nc3ccccc3c2C)C(O)C1` (stereo not drawn) [L, 5-hydroxy-1,2,4,5-tetrahydro-11-methyl-3-azepino[4,5-b]quinoline-carboxylic acid ethyl ester], the ED50 in series [1] was found to be 4 mg/kg.

Consider `Cc1c2c(nc3ccccc13)CCCNC2.Cl.Cl` [B, 2,3,4,5-tetrahydro-11-methyl-1H-azepino[4,3-b]quinoline dihydrochloride], for which the 50% effective dose (ED50) in series [1] was determined as 1.1 mg/kg. Further, in series [2], the selectivity ratio worked out at 177 and the LD50 at 24 h was 195 mg/kg.

For the molecule `Cc1c2c(nc3ccccc13)C(O)CNCC2.Cl.Cl` (stereo not drawn) [H, 5-hydroxy-1,2,4,5-tetrahydro-11-methyl-3H-azepino[4,5-b]quinoline dihydrochloride], the ED50 in series [1] amounted to 0.3 mg/kg. For the same molecule, in series [2], the selectivity ratio was determined as 420 and the LD50 at 24 h was found to be 126 mg/kg.

Regarding `Cc1c2c([n+]([O-])c3ccccc13)CCNCC2` [G, 1,2,4,5-tetrahydro-11-methyl-3H-azepino[4,5-b]quinoline-6-N-oxide hydrochloride], the ED50 in series [1] was 0.8 mg/kg. In series [2], the selectivity ratio was determined as 394 and the LD50 at 24 h turned out to be 315 mg/kg.

For the molecule `Cc1c2c(nc3cccc(Cl)c13)CCNCC2` [K, 10-chloro-1,2,4,5-tetrahydro-11-methyl-3H-azepino[4,5-b]quinoline dihydrochloide], the ED50 in series [1] was 1.3 mg/kg.

Turning to `CCCN1CCc2nc3ccccc3c(C)c2CC1.Cl.Cl` [I, 1,2,4,5-tetrahydro-11-methyl-3propyl-3H-azepino[4,5-b]quinoline dihydrochloride], the ED50 in series [1] was found to be 0.9 mg/kg.

Values taken from US3987047A, “Tetrahydro-azepinoquinolines” (Boehringer Ingelheim GmbH, priority 1973, dated 1976).
